Reference: ChEMBL document CHEMBL5325510, “Vincamine, from an antioxidant and a cerebral vasodilator to its anticancer potential” (Bioorg Med Chem, 2023)

Legend:
[1] = test system: A549; assay: Cytotoxicity against human A549 cells assessed as reduction in cell viability measured after 48 hrs by MTT assay; assay type: functional, cell-based; details: A549, 48 h
[2] = test system: B16; assay: Cytotoxicity against mouse B16 cells assessed as reduction in cell viability measured after 96 hrs by microplate reader based MTT assay; assay type: functional
[3] = test system: HEp-2; assay: Cytotoxicity against human HEp-2 cells assessed as reduction in cell growth; assay type: functional, cell-based
[4] = test system: KB; assay: Cytotoxicity against human KB cells assessed as cell growth inhibition incubated for 48 hrs by MTT assay; assay type: functional, cell-based

CC[C@]12CCCN3CCc4c(n(c5ccccc45)[C@@](O)(C(=O)OC)C1)[C@@H]32 [VINCAMINE] gave an IC50 [1] of 310 µM, an IC50 [2] of 68.9 µM and an IC50 [3] of 274 µM. For the same compound, the IC50 [4] was 232 µM.
